Laboratory results from patent US5599806A, “Hydrazino and hydroxyamino-14-β-hydroxyandrostane derivatives active on the cardiovascular system processes for their preparation and pharmaceutical compositions containing same” (Sigma-Tau Industrie Farmaceutiche Riunite S.p.A., priority 1994, dated 1997).
Where two headings read alike, the source gives them in different places.

Tests used:
[1] = biological target: Na^+, K^+ -ATPase receptor; test: displacement of the specific ^3 H-ouabain binding from the Na^+, K^+ -ATPase receptor; conditions: ^3 H-ouabain displacement, purified Na^+
Text: a) displacement of the specific ^3 H-ouabain binding from the Na^+, K^+ -ATPase receptor purified according to Jorghensen (Jorghensen P., BBA, 1974, 356, 36) and Erdmann (Erdmann E. et al., Arzneim. Forsh., 1984, 34, 1314);

[2] = biological target: T1, purified Na^+, K^+ -ATPase (Canis lupus familiaris, UniProt P50997); test: inhibition of the activity of the purified Na^+, K^+ -ATPase (hydrolysis of ^32 P-ATP); assay type: biochemical
T1 construct: from tissue
Text: To test the affinity for the receptor site of the Na^+, K^+ -ATPase and the inhibition of the activity of the enzyme, the following tests were used:
b) inhibition of the activity of the purified Na^+, K^+ -ATPase measured as % of hydrolysis of ^32 P-ATP in the presence and in the absence of the tested compound (Doucet A. et al., Am. J. Physiol., 1986, 251, F851)

[3] = system: spontaneous hypertensive rats (MHS); test: effect of 5 week-treatment in spontaneous hypertensive rats (MHS) on the development of hypertension (SBP and HR, tail cuff method); assay type: in vivo, rat; conditions: 0.1 mg/Kg/os daily, 5 weeks, in Methocel 0.5% w/v
Procedure: Systolic blood pressure (SBP) and hear rate (HR) were measured, by the tail cuff method, in young prehypertensive male rats (MHS or SHR) strains before the development of hypertension (4 weeks of age) for recording the basal values of SBP. Groups of 7 rats were formed and subdivided in control and treated groups.
The compound, suspended in Methocel 0.5% (w/v), was orally given daily for at least 5 weeks to the treated groups. The control group received only Methocel.
SBP and HR were measured weekly 6 and 24 hrs after treatment. After 5 weeks of treatment, when hypertension was fully developed in the control group (9 weeks of age), washout was started for at least one week, to verify whether the treatment maintained blood pressure low or reestablished the basal values.
(Takeda K. et al., Japan J. Pharmacol., 1979, 29, 171; Takeda K. et al. Japan J. Pharmacol., 1982, 32, 283; Richer C. et al. Eur. J. Pharmacol, 1978, 47,393).

[4] = hydrolysis of ^32 P-ATP, purified Na^+, K^+ -ATPase, read-out: Inhibitory Activity (-log IC50) (converted)

SMILES | Binding ^3 H-Ouab. Displacement (-log IC50) [1] | IC50 [2, 4] | IC50 [2] | SBP ([3]; controls 170 +/- 5.5) | HR ([3]; controls 378 +/- 12.0)
C[C@]12CC[C@H](O)C[C@H]1CC[C@@H]1[C@@H]2CC[C@]2(C)[C@@H](CNNC(=N)N)CC[C@]12O [Comp. I-aa, 17β-[2-(Amidino)]hydrazinomethyl-5β-androstane-3β,14β-diol] | 6.9 |  |  |  | 
C[C@]12CC[C@H](O)C[C@H]1CC[C@@H]1[C@@H]2CC[C@]2(C)[C@@H](CNNC3=NCCN3)CC[C@]12O [Comp. I-ab, 17β-[2-(2-Imidazolin-2-yl)]hydrazinomethyl-5β-androstane-3β,14β-diol] | 6.6 | 3.16 µM |  |  | 
CN1CCN=C1NNC[C@H]1CC[C@]2(O)[C@@H]3CC[C@@H]4C[C@@H](O)CC[C@]4(C)[C@H]3CC[C@]12C [Comp. I-ac, 17β-[2-(1-Methyl-2-imidazolin-2-yl)]hydrazinomethyl-5β-androstane-3β,14β-diol] | 6.0 |  | 10 µM |  | 
C[C@]12CC[C@H](O)C[C@H]1CC[C@@H]1[C@@H]2CC[C@]2(C)[C@@H](CNNC3=NCCCN3)CC[C@]12O [Comp. I-ad, 17β-[2-(1,4,5,6-Tetrahydro-2-pyrimidinyl)]hydrazinomethyl-5β-androstane-3β,14β-diol] | 6.5 |  | 3.98 µM |  | 
CN(C)CCNC(=N)NNC[C@H]1CC[C@]2(O)[C@@H]3CC[C@@H]4C[C@@H](O)CC[C@]4(C)[C@H]3CC[C@]12C [Comp. I-ae, 17β-{2-[N-(2-Dimethylaminoethyl)amidino]}hydrazinomethyl-5β-androstane-3β,14β-diol] | 5.4 |  | 31.6 µM |  | 
C[C@]12CC[C@H](O)C[C@H]1CC[C@@H]1[C@@H]2CC[C@]2(C)[C@@H](CNNC(=N)Nc3ccccc3)CC[C@]12O [Comp. I-af, 17β-[2-(N-Phenylamidino)]hydrazinomethyl-5β-androstane-3β,14β-diol] | 5.0 |  | 63.1 µM |  | 
CC(NNC(=N)N)[C@H]1CC[C@]2(O)[C@@H]3CC[C@@H]4C[C@@H](O)CC[C@]4(C)[C@H]3CC[C@]12C (stereo partly drawn) [Comp. I-ag, 20-(2-Amidino)hydrazino-5β-pregnane-3β,14β-diol] | 6.5 |  | 6.31 µM |  | 
C[C@]12CC[C@H](O)C[C@H]1CC[C@@H]1[C@@H]2CC[C@]2(C)[C@@H](CNO)CC[C@]12O [Comp. I-ah, 17β-Hydroxyaminomethyl-5β-androstane-3β,14β-diol] | 5.0 |  | 79.4 µM |  | 
CONC[C@H]1CC[C@]2(O)[C@@H]3CC[C@@H]4C[C@@H](O)CC[C@]4(C)[C@H]3CC[C@]12C [Comp. I-ai, 17β-Methoxyaminomethyl-5β-androstane-3β,14β-diol] | 5.1 |  |  |  | 
C[C@]12CC[C@H](O)C[C@H]1CC[C@@H]1[C@@H]2CC[C@]2(C)[C@@H](CNOCCN)CC[C@]12O [Comp. I-aj, 17β-(2-Aminoethoxyamino)methyl-5β-androstane-3β,14β-diol] | 7.2 |  | 1 µM | 150 +/- 4.1 mm Hg | 372 +/- 11.7 beats/min.
C[C@]12CC[C@H](O)C[C@H]1CC[C@@H]1[C@@H]2CC[C@]2(C)[C@@H](CNOCCCN)CC[C@]12O [Comp. I-ak, 17β-(3-Aminopropoxyamino)methyl-5β-androstane-3β,14β-diol] | 6.9 |  | 2.51 µM |  | 
C[C@]12CC[C@H](O)C[C@H]1CC[C@@H]1[C@@H]2CC[C@]2(C)[C@@H](CNOCCCCN)CC[C@]12O [Comp. I-al, 17β-(4-Aminobutoxyamino)methyl-5β-androstane-3β,14β-diol] | 6.2 |  |  |  | 
CN(C)CCCONC[C@H]1CC[C@]2(O)[C@@H]3CC[C@@H]4C[C@@H](O)CC[C@]4(C)[C@H]3CC[C@]12C [Comp. I-an, 17β-(3-Dimethylaminopropoxyamino)methyl-5β-androstane-3β,14β-diol] |  |  | 63.1 µM |  | 
CN(C)CCCCONC[C@H]1CC[C@]2(O)[C@@H]3CC[C@@H]4C[C@@H](O)CC[C@]4(C)[C@H]3CC[C@]12C [Comp. I-ao, 17β-(4-Dimethylaminobutoxyamino)methyl-5β-androstane-3β,14β-diol] |  |  | 79.4 µM |  | 
CN(C)CCON(C)C[C@H]1CC[C@]2(O)[C@@H]3CC[C@@H]4C[C@@H](O)CC[C@]4(C)[C@H]3CC[C@]12C [Comp. I-ap, 17β-[N-Methyl-N-(2-dimethylaminoethoxy)amino]methyl-5β-androstane-3β,14β-diol] | 5.0 | 100 µM |  |  | 
C[C@]12CC[C@H](O)C[C@H]1CC[C@@H]1[C@@H]2CC[C@]2(C)[C@@H](CNOCCNC(=N)N)CC[C@]12O [Comp. I-aq, 17β-(2-Guanidinoethoxyamino)methyl-5β-androstane-3β,14β-diol] | 6.0 | 39.8 µM |  |  | 
CC(NOCCN(C)C)[C@H]1CC[C@]2(O)[C@@H]3CC[C@@H]4C[C@@H](O)CC[C@]4(C)[C@H]3CC[C@]12C (stereo partly drawn) [Comp. I-ar, 20β-(2-Dimethylaminoethoxyamino)-5β-pregnane-3β,14β-diol] | 5.7 |  | 63.1 µM |  | 
C[C@]12CC[C@H](O)C[C@H]1CC[C@@H]1[C@@H]2CC[C@]2(C)[C@@H](C=CCNNC(=N)N)CC[C@]12O [Comp. I-as, 17β-{3-[2-(Amidino)]hydrazino-1-propenyl}-5β-androstane-3β,14β-diol] | 6.0 |  | 31.6 µM |  | 
C[C@]12CC[C@H](O)C[C@H]1CC[C@@H]1[C@@H]2CC[C@]2(C)[C@@H](C=CCNOCCN)CC[C@]12O [Comp. I-at, 17β-[3-(2-Aminoethoxyamino)-1-propenyl]-5β-androstane-3β,14β-diol] | 6.7 |  | 10 µM |  | 
CN(C)CCONCC=C[C@H]1CC[C@]2(O)[C@@H]3CC[C@@H]4C[C@@H](O)CC[C@]4(C)[C@H]3CC[C@]12C [Comp. I-au, 17β-[3-(2-Dimethylaminoethoxyamino)-1-propenyl]-5β-androstane-3β,14β-diol] | 5.9 | 39.8 µM |  |  | 
CC(=C[C@H]1CC[C@]2(O)[C@@H]3CC[C@@H]4C[C@@H](O)CC[C@]4(C)[C@H]3CC[C@]12C)CNOCCN(C)C [Comp. I-av, 17β-[3-(2-Dimethylaminoethoxyamino)-2-methyl-1-propenyl]-5β-androstane-3β,14β-diol] | 5.7 |  | 63.1 µM |  | 
CN(C)CCONCC[C@H]1CC[C@]2(O)[C@@H]3CC[C@@H]4C[C@@H](O)CC[C@]4(C)[C@H]3CC[C@]12C [Comp. I-ax, 17β-[2-(2-Dimethylaminoethoxyamino)ethyl]-5β-androstane-3β,14β-diol] | 5.7 | 39.8 µM |  |  | 
CN(C)CCONCCC[C@H]1CC[C@]2(O)[C@@H]3CC[C@@H]4C[C@@H](O)CC[C@]4(C)[C@H]3CC[C@]12C [Comp. I-ay, 17β-[3-(2-Dimethylaminoethoxyamino)propyl]-5β-androstane-3β,14β-diol] | 5.8 | 39.8 µM |  |  | 
CN(C)CCONC[C@@]1(O)CC[C@]2(O)[C@@H]3CC[C@@H]4C[C@@H](O)CC[C@]4(C)[C@H]3CC[C@]12C [Comp. I-ba, 17β-(2-Dimethylaminoethoxyamino)methyl-5β-androstane-3β,14β,17α-diol] | 5.2 |  | 100 µM |  | 
CN(C)CCONC[C@H]1CC[C@]2(O)[C@@H]3CC[C@@H]4C[C@@H](OCCN)CC[C@]4(C)[C@H]3CC[C@]12C [Comp. I-bc, 3β-(2-Aminoethoxy)-17β-(2-dimethylaminoethoxyamino)methyl-5β-androstane-14β-ol] | 6.1 | 39.8 µM |  |  | 
CN(C)CCONC[C@H]1CC[C@]2(O)[C@@H]3CC[C@@H]4C[C@@H](OCCN5CCCC5)CC[C@]4(C)[C@H]3CC[C@]12C [Comp. I-bd, 3β-[2-(1-Pyrrolidinyl)ethoxy]-17β-(2-dimethylaminoethoxyamino)methyl-5β-androstane-3β,14β-diol] | 6.2 |  | 31.6 µM |  | 
CN(C)CCONC[C@H]1CC[C@]2(O)[C@@H]3CC[C@@H]4C[C@@H](OCCCN5CCCC5)CC[C@]4(C)[C@H]3CC[C@]12C [Comp. I-be, 3β-(3-(1-Pyrrolidinyl)propoxy)-17β-(2-dimethylaminoethoxyamino)methyl-5β-androstane-3β,14β-diol] | 6.0 |  |  |  | 
